According to patent US20150125432A1, “Human Persistent Fetal Vasculature Neural Progenitors for Transplantation in the Inner Retina” (The Schepens Eye Research Institute, Inc., priority 2012, published 2015):

How the values were obtained:
NPPFV cells = test: Ca2+ imaging (Fura-2) of NPPFV cells after stimulation with neurotransmitters; format: cell-based, human; details: for percentage of responding NPPFV cells: neurotransmitter 0.1 mM, mean±SEM; for elicited [Ca2+]i of responding NPPFV cells: undifferentiated and differentiated NPPFV cells, result in words
Description: Cells were incubated at 37° C. for 30 min in X-vivo medium (containing 3% FBS, 5 μM Fura-2 tetra-acetoxymethyl ester, 8 μM pluronic acid F127 and 250 μM sulfinpyrazone). Cells were washed in modified Mg^2+-free Hank's balanced salt solution (HBSS, 2.6 mM CaCl2, 15 mM HEPES [pH 7.4] and 250 μM sulfinpyrazone). Five types of neurotransmitters, γ-aminobutyric acid (GABA), glutamate (Glu), glycine (Gly), dopamine (Dopa) and acetylcholine (Ach) were dissolved in modified HBSS at a concentration of 0.1 mM. The largest dynamic range for Ca^2+-dependent fluorescence signals is obtained by excitation at 340 nm and 380 nm, and detecting their ratio of emission fluorescence intensities at around 510 nm. From this ratio, the concentration of intracellular Ca^2+ ([Ca^2+]i) can be estimated, using dissociation constants that are derived from calibration curves. By using the ratio of fluorescence intensities produced by excitation at two wave lengths, factors such as uneven dye distribution and photo bleaching are minimized ([…] Ratio Imaging System, Cincinnati, Ohio). The change of [Ca^2+]i was calculated from the difference between the peak Ca^2+ concentration evoked by each agonist and the control value of HBSS (before the addition of agonist). At least 80 cells were selected for analyzing the change of [Ca^2+]i evoked by each agonist, averaged over three repetitions.

[1] = molecular target: IGF-1 receptor on B6 mouse retinal ganglion cells (mouse) (UniProt Q60751); test: cell-based or functional assay
UniProt Q60751, sequence (Q60751 31-1373): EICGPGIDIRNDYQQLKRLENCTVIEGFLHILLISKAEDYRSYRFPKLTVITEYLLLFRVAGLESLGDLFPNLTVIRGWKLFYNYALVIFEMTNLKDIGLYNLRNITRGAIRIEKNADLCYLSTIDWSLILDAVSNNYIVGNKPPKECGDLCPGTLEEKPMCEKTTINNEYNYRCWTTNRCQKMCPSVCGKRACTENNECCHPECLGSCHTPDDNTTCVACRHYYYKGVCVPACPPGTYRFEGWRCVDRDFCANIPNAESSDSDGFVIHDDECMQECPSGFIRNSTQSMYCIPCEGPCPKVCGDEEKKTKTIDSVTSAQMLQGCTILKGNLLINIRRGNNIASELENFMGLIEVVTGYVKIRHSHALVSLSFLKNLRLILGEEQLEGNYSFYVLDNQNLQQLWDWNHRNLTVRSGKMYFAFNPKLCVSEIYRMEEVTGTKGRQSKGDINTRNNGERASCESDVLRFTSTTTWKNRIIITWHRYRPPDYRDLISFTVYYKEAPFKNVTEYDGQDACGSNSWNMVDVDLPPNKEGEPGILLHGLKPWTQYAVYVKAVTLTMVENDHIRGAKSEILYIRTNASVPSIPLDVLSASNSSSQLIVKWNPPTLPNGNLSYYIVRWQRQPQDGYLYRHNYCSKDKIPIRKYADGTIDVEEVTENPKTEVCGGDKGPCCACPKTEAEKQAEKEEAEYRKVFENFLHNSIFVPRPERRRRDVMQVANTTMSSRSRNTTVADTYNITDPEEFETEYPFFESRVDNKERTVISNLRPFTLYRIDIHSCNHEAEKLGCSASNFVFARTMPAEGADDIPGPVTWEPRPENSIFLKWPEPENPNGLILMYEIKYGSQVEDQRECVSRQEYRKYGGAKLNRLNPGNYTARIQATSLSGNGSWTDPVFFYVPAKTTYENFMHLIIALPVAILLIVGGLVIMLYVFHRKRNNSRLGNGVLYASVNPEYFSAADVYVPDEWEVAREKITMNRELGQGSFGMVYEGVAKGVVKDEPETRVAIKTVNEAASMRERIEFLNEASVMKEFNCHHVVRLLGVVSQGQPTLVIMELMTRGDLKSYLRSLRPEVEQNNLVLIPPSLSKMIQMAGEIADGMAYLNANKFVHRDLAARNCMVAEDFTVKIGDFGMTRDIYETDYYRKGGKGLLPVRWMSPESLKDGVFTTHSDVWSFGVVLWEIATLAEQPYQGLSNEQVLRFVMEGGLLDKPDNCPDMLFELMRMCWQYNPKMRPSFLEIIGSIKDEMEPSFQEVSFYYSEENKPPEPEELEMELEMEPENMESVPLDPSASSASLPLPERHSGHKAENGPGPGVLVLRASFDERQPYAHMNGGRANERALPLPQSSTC

B6 mouse RGCs [2] = test: RGC survival assay (LIVE/DEAD) in co-culture with transfected hNPPFV cells; format: cell-based; details: added to hNPPFV^igf-1-tdTomato co-culture; H-1356 40 μg/ml, NBI-31772 10 μM, IGF-1R antibody 1:250; words
Description: (§1) P0 B6 mice were euthanized with CO2 and the retinas were dissected out from the eyecups in cold Hank's buffer (Life Technologies) containing 1× Penicillin-Streptomycin-Glutamine (Life Technologies). Retinas were digested in 20 U/ml papain solution containing 100 U/ml DNaseI at 37° C. for 5-15 min; the reaction was stopped with 5 mg/ml ovomucoid protease inhibitor containing 5 mg/ml albumin. Retinas were gently triturated to obtain a single cell suspension, and cells were washed once and re-suspended in 800 μl washing buffer (0.5% BSA, 2 mM EDTA in 1×PBS). RGCs were isolated using Thy1.2 (CD90.2) microbeads and MACS® magnetic separation system (Miltenyi Biotech) following the manufacturer's instructions. […]
(§2) Co-culture inserts and culture media were removed after 3 days; RGCs were washed with 1×PBS and stained with CalceinAM and EthD-1 (LIVE/DEAD® Viability/Cytotoxicity kit, Life Technologies) for 40 min at room temperature. Images of 4-6 view fields were randomly selected throughout each well under an Olympus inverted fluorescence microscope. Live and dead cells were counted using ImageJ 1.46 (National Institutes of Health, Bethesda, Md.) and survival rates were calculated as live cells/live+dead cells×100%. […] Images were acquired with an Olympus inverted fluorescence microscope. Neurite lengths were measured using ImageJ.

B6 mouse RGCs [3] = test: Neurite outgrowth assay of RGCs in co-culture with transfected hNPPFV cells; format: cell-based; details: added to hNPPFV^igf-1-tdTomato co-culture; H-1356 40 μg/ml, NBI-31772 10 μM, IGF-1R antibody 1:250; words
Description: as §1, §2

[4] = tested on: retina of adult C57BL/6 mice; test: Inner retinal (intravitreal) transplantation into adult C57BL/6 mice; format: in vivo, mouse; details: intraperitoneal RA 2 mg/kg·day, 3 weeks; result in words
From the text: For studying their potential for inner retinal transplantation, NPPFV cells or hRPCs were intravitreally injected to 20 and 10 C57BL/6 mice, respectively. Animals were maintained in standard animal facility. To trace the transplanted cells, NPPFV cells and hRPCs were infected with an AAV2 or retrovirus vector harboring EGFP (HGTI, Boston, Mass.) following the instructions of each transfection kit, respectively. Mice (4-6 weeks of age) were deeply anesthetized with an intraperitoneal injection of ketamine (120 mg/kg) and xylazine (20 mg/kg) and pupils were dilated with 0.5% topical tropicamide. Dissociated GFP-positive cells (1×10^5 cells/2 μl) were suspended in HBSS […] of the eye through a glass micropipette connected to a 10 μl Hamilton syringe via polyethylene tubing. Sham-injected mice received HBSS without cells. All experimental animals received injection in one eye and the other eye was used as an untreated control. […] Anti-GFP antibody (1:100, ABCAM, USA) was used to enhance the fluorescence of prelabled-GFP, while anti-β-III-tubulin (1:500, Sigma, USA), anti-GFAP (1:300, Sigma, USA) and anti-synaptophysin (1:100, DAKO, USA) antibodies helped to assess the differentiation of the transplanted cells. […] Every 10th serial section was counted, measuring […] in thickness as to avoid redundancy of cell counts.

Compound | percentage of responding NPPFV cells (NPPFV cells; differentiated NPPFV cells) | percentage of responding NPPFV cells (NPPFV cells; undifferentiated NPPFV cells) | elicited [Ca2+]i of responding NPPFV cells (NPPFV cells) | also measured
NCC(=O)O [Gly, glycine] | 21.05±9.72% | 16.67±10.62% | quite low | –
NCCc1ccc(O)c(O)c1 [Dopa, dopamine] | 7.89±9.18% | 6.41±7.14% | quite low | –
IGF-1-tdTomato fusion protein (from UniProt P05017 49-118) (ligand) | – | – | – | average neurite length of RGCs co-cultured with hNPPFV^igf-1-tdTomato cells [1]: 93 µm; neurites per RGC co-cultured with hNPPFV^igf-1-tdTomato cells (neurites/cell) [1]: 2; survival rate of RGCs co-cultured with hNPPFV^igf-1-tdTomato cells [1]: 22%
NCCCC(=O)O [GABA, γ-aminobutyric acid] | 12.99±4.86% | 14.94±11.73% | quite low | –
O=C(O)c1cc2cc(O)c(O)cc2c(C(=O)c2ccc(O)c(O)c2)n1 [NBI-31772] | – | – | – | effect on IGF-1-tdTomato-mediated RGC survival (B6 mouse RGCs [2]): completely eliminated the effects; effect on IGF-1-tdTomato-mediated neurite outgrowth (B6 mouse RGCs [3]): completely eliminated the effects
CC(=O)OCC[N+](C)(C)C [Ach, acetylcholine] | 8.23±5.41% | 10.96±8.12% | – | –
N[C@@H](CCC(=O)O)C(=O)O [Glu, glutamate] | 87.88±4.97% | 48.98±11.67% | significant increase | –
CC1=C(/C=C/C(C)=C/C=C/C(C)=C/C(=O)O)C(C)(C)CCC1 [RA, all-trans-retinoic acid] | – | – | – | differentiation of engrafted NPPFV cells into retinal ganglion-like neurons [4]: significantly increases the differentiation of engrafts into retinal ganglion-like mature neurons
